The results in this text go back to publication PMC5557808 (Nature Communications, 2017).

Where a SMILES comes first, the peptide text is derived from it. [ ]: non-standard residue; d: D form. The star is where a group is joined. X1 = CC[N+](CC)(CC(=O)Nc1c(C)cccc1C)Cc1cccc(C(=O)*)c1; Aha = [N-]=[N+]=NCC[C@H](N)C(=O)O

The test addresses T1, Leucine aminopeptidase (AP) (Sus scrofa, UniProt P15145).
T1 construct: Leucine aminopeptidase (AP; Mw = 280 kDa) from porcine kidney; purchased Sigma-Aldrich Chemie, Schnelldorf, Germany; host or cells: porcine kidney (tissue-derived)
T1 sequence (P15145 1-963): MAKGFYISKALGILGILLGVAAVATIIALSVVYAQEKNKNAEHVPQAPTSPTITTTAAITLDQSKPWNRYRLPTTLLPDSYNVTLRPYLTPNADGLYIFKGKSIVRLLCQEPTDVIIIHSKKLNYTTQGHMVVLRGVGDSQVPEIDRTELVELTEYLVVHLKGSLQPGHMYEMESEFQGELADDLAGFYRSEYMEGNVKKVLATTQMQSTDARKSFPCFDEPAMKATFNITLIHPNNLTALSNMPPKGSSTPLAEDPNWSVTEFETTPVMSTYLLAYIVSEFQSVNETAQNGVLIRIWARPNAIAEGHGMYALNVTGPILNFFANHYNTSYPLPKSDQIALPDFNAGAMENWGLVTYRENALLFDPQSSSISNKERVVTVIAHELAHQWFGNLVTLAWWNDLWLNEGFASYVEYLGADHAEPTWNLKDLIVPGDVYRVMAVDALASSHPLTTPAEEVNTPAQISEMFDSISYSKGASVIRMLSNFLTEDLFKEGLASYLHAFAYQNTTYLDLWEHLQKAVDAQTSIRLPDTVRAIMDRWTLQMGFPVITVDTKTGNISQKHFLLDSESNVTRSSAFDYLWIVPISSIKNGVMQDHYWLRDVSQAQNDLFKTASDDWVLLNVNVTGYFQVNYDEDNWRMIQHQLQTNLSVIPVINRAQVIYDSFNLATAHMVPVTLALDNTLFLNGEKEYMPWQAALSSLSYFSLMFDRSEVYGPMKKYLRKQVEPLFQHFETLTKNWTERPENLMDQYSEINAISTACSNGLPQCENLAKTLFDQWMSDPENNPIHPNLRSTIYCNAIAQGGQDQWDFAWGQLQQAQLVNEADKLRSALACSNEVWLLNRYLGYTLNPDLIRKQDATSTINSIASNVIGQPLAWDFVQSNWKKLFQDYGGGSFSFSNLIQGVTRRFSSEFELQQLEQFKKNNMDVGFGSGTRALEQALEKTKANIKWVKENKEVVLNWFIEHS
As to the kind of experiment: Aminopeptidase (AP) incubation. Type of test: biochemical, porcine. To be noted: AP 3.1 nM (0.87 µg/mL), 30 min, 37 °C, after 22 h with 1800 ng/mL MMP-8; LC-MS. The procedure:
Leucine aminopeptidase (AP; Mw = 280 kDa) from porcine kidney dissolved in AP buffer (50 mM Tris-HCl, 1 mM CaCl2, and 150 mM NaCl at pH 7.0) was used. L-leucine-p-nitroanilide (0.125 mg/mL) was used as control substrate. For AP digestion, 1 mg of purified lyophilized peptide was diluted in 2 mL AP buffer resulting in a final concentration of 0.5 mg/mL substrate. To evaluate the impact of AP concentration on peptide cleavage, AP was added at concentrations of 0 (negative control), 0.87, 8.7, 39, and 78 µg/mL and the samples were incubated at 37 °C for 1 h. For analysis of the AP incubation time, an AP concentration of 0.87 µg/mL was used and analyzed after 10, 20 min and 1, 2, 3, and 6 h. To stop the enzyme activity, samples were kept at 95 °C for 15 min. Afterwards, HPLC analyses were performed (as described in the Supplementary Information) to analyze the relative decrease of the main peak as compared to the negative control. Further details are given in the Supplementary Methods.
MMP -9) in a concentration of 0.4 ng/µL (50 µL) were mixed with MMP -8 buffer (37 µL), detection enz yme (5 µL) and substrate (8µL; all fro m Q uic kZ yme® ). The acti vi t y was meas ur ed for 12 hours in inter vals of 10 minutes. […]
Aminopeptidase (AP) incubation
Leucine A minopeptidase (AP; M w = 280 kD a) from porcine kidney dissolved in AP buffer (50 mM Tris-HCl, 1 mM CaCl2 and 150 mM NaCl at pH 7.0) was used. L-leu cin e-p-nitroan ilide (0.125mg/ mL) was used as control substr at e. […] Fo r anal ysis of the impact of AP incubation time, the identical conditions were used (AP concentration of 0.87 µg / mL (and analyzed after 10, 20 minutes and 1, 2, 3 and 6 hours ). To stop the enzymatic activit y, sa mp les wer e kept at 95 °C for 15 minutes. A fterwards, H PLC analys es were p erformed (as descr ibed) to an al yze th e relative d ecr eas e of the ma i n pea k as co mp ared to the negative control (see […]
V(B)/(V(A)+V(B)) = 5 % to 90 % over 10 min, V(B)/(V(A)+V(B)) = 90 % for 5 min, V(B)/(V(A)+V(B)) = 90 % to 5 % over 3 min. […] UV detection was measured at 254 nm. […]

For `CC[C@H](C)[C@H](NC(=O)CNC(=O)[C@H](CCC(N)=O)NC(=O)[C@@H]1CCCN1C(=O)CNC(=O)c1cccc(C[N+](CC)(CC)CC(=O)Nc2c(C)cccc2C)c1)C(=O)N[C@@H](C)C(=O)NCC(=O)N[C@@H](CCC(N)=O)C(=O)N[C@@H](CCN=[N+]=[N-])C(=O)N[C@@H](CCC(N)=O)C(=O)O` [ID #1c] (X1-GPQGIAGQ[Aha]Q-OH), the “effect of additional AP incubation after complete MMP-8 cleavage” value is “no difference”.
